Assays:
HeLa [1] = test: Cytotoxicity against human HeLa cells after 7 days by MTT assay; assay type: functional, cell-based; settings: 168 h
[2] = Cytotoxicity against human resting lymphocytes after 3 days by MTT assay; assay type: cell-based; settings: Lymphocyte, 72 h
[3] = Cytotoxicity against phytohaemagglutinin-stimulated human lymphocytes after 3 days by MTT assay; assay type: cell-based; settings: Lymphocyte, 72 h
Plasmodium falciparum [4] = test: Resistance index, ratio of IC50 for chloroquine-resistant Plasmodium falciparum Dd2 to IC50 for chloroquine-sensitive Plasmodium falciparum D10; assay type: functional
HeLa [5] = test: Tumor specificity, ratio of IC50 for human resting and phytohaemagglutinin-stimulated lymphocytes to IC50 for human HeLa cells
Plasmodium falciparum [6] = test: Antiplasmodial activity against chloroquine-resistant Plasmodium falciparum Dd2; assay type: functional, organism-based
Plasmodium falciparum [7] = test: Antiplasmodial activity against chloroquine-sensitive Plasmodium falciparum D10; assay type: functional, organism-based

| SMILES | IC50 (HeLa [1]) [µM] | IC50 [2] [µM] | IC50 [3] [µM] | Ratio IC50 (Plasmodium falciparum [4]) | Ratio IC50 (HeLa [5]) | IC50 (Plasmodium falciparum [6]) [µM] | IC50 (Plasmodium falciparum [7]) [µM] |
| --- | --- | --- | --- | --- | --- | --- | --- |
| C=CC(=O)O[C@@H]1O[C@@H]2O[C@@]3(C)CC[C@H]4[C@H](C)CC[C@@H]([C@H]1C)[C@@]24OO3 | 6.37 | 39.6 | 11.5 | 1.6 | 4 | 0.00927 | 0.00585 |
| C=CC(=O)O[C@H]1O[C@@H]2O[C@@]3(C)CC[C@H]4[C@H](C)CC[C@@H]([C@H]1C)[C@@]24OO3 | 2.88 | 30.5 | 9.22 | 1.6 | 6.9 | 0.0124 | 0.00754 |
| C[C@H]1[C@@H](OC(=O)CCNCCNc2ccnc3cc(Cl)ccc23)O[C@@H]2O[C@@]3(C)CC[C@H]4[C@H](C)CC[C@@H]1[C@@]24OO3 | 9.47 | > 50 | 16.9 | 1 | 1.8 | 0.0201 | 0.0206 |
| C[C@H]1[C@@H](OC(=O)CCNCCCNc2ccnc3cc(Cl)ccc23)O[C@@H]2O[C@@]3(C)CC[C@H]4[C@H](C)CC[C@@H]1[C@@]24OO3 | 5.58 | 21.5 | 4.71 | 1.3 | 2.4 | 0.0244 | 0.0187 |
| C[C@H]1[C@@H](OC(=O)CCNCCCCNc2ccnc3cc(Cl)ccc23)O[C@@H]2O[C@@]3(C)CC[C@H]4[C@H](C)CC[C@@H]1[C@@]24OO3 | 10.1 | 32.4 | 8.99 | 1.1 | 2 | 0.0275 | 0.024 |
| C[C@H]1[C@@H](OC(=O)CCNCCCCCCNc2ccnc3cc(Cl)ccc23)O[C@@H]2O[C@@]3(C)CC[C@H]4[C@H](C)CC[C@@H]1[C@@]24OO3 | 0.37 | 19 | 3.4 | 0.9 | 30.7 | 0.0536 | 0.0556 |
| C[C@H]1[C@@H](OC(=O)CCN2CCN(c3ccnc4cc(Cl)ccc34)CC2)O[C@@H]2O[C@@]3(C)CC[C@H]4[C@H](C)CC[C@@H]1[C@@]24OO3 | 6.58 | 44.6 | 14 | 1 | 4.5 | 0.01 | 0.0101 |
| C[C@H]1[C@H](OC(=O)CCN2CCCC2)O[C@@H]2O[C@@]3(C)CC[C@H]4[C@H](C)CC[C@@H]1[C@@]24OO3 | – | – | – | 1 | – | 0.0114 | 0.0113 |
| C[C@H]1[C@H](OC(=O)CCN2CCOCC2)O[C@@H]2O[C@@]3(C)CC[C@H]4[C@H](C)CC[C@@H]1[C@@]24OO3 | 4.8 | > 50 | 27.3 | 1.4 | 5.7 | 0.00902 | 0.00623 |
| CCN(CC)CCC(=O)O[C@@H]1O[C@@H]2O[C@@]3(C)CC[C@H]4[C@H](C)CC[C@@H]([C@H]1C)[C@@]24OO3 | 6.02 | > 50 | 30.4 | 1 | 5 | 0.0136 | 0.013 |
| C[C@H]1[C@H](OC(=O)CCN(C)Cc2ccccc2)O[C@@H]2O[C@@]3(C)CC[C@H]4[C@H](C)CC[C@@H]1[C@@]24OO3 | 4.48 | > 50 | 25 | 1.2 | 5.6 | 0.00616 | 0.0053 |
| CC(C)NCCC(=O)O[C@@H]1O[C@@H]2O[C@@]3(C)CC[C@H]4[C@H](C)CC[C@@H]([C@H]1C)[C@@]24OO3 | 13 | – | – | 1.1 | – | 0.0187 | 0.0169 |
| C[C@H]1[C@H](OC(=O)CCN2CCNCC2)O[C@@H]2O[C@@]3(C)CC[C@H]4[C@H](C)CC[C@@H]1[C@@]24OO3 | 8.91 | > 50 | 31 | 1.7 | 3.5 | 0.016 | 0.00922 |
| C[C@H]1[C@H](OC(=O)CCN2CCN(C)CC2)O[C@@H]2O[C@@]3(C)CC[C@H]4[C@H](C)CC[C@@H]1[C@@]24OO3 | 6.55 | > 50 | 27.2 | 1.8 | 4.1 | 0.0126 | 0.00716 |
| C[C@H]1[C@H](OC(=O)CCN2CCN(c3ccccc3)CC2)O[C@@H]2O[C@@]3(C)CC[C@H]4[C@H](C)CC[C@@H]1[C@@]24OO3 | 5.76 | > 50 | 27.6 | 1.3 | 4.8 | 0.0073 | 0.00559 |
| NCCCNc1ccnc2cc(Cl)ccc12 | 9.83 | – | – | 5.2 | – | 1.25 | 0.24 |
| NCCCCNc1ccnc2cc(Cl)ccc12 | 11.2 | – | – | 4.7 | – | 2.27 | 0.483 |
| NCCCCCCNc1ccnc2cc(Cl)ccc12 | 15.7 | – | – | 0.9 | – | 1.86 | 2.16 |
| Clc1ccc2c(N3CCNCC3)ccnc2c1 | 27.6 | – | – | 1.1 | – | 1.64 | 1.46 |
| NCCNc1ccnc2cc(Cl)ccc12 | 7.22 | – | – | 4.9 | – | 1.14 | 0.231 |
| C[C@@H]1CC[C@H]2[C@@H](C)C(=O)O[C@@H]3O[C@@]4(C)CC[C@@H]1[C@]32OO4 [ARTEMISININ] | – | – | – | 1 | – | – | – |
| C[C@H]1[C@@H](O)O[C@@H]2O[C@@]3(C)CC[C@H]4[C@H](C)CC[C@@H]1[C@@]24OO3 [ARTENIMOL] | – | – | – | 0.75 | – | 0.003 | 0.0041 |

Reference: ChEMBL document CHEMBL1770072, “Antiplasmodial and antitumor activity of dihydroartemisinin analogs derived via the aza-Michael addition reaction” (Bioorg Med Chem Lett, 2011)
